Type in all cases: in vivo
Assay [1] deals with Abcd1−/Abcd2−/− mice. Briefly: Locomotor testing overall (treadmill and bar cross), disease progression in X-ALD mice. To be noted: four months of treatment. The method, then: Treadmill apparatus consisted of a variable speed belt varying in terms of speed and slope. An electrified grid was located to the rear of the belt on which footshocks (0.2 mA) were administered whenever the mice fell off the belt. The treadmill apparatus (Panlab, Barcelona, Spain) consisted of a belt (50 cm long and 20 cm wide) varying in terms of speed (5 to 150 cm/s) and slope (0-25°) enclosed in a plexiglass chamber. The latency to falling off the belt (time of shocks in seconds) and the number of received shocks were measured. The mice were placed on the top of the already moving belt facing away from the electrified grid and in the direction opposite to the movement of the belt. […]
The mice were evaluated in five trials in a single-day session. […] When the mice were subjected to consecutive trials at increasing speeds up to 20 cm/sec and a 20° slope, no differences were detected from one session to another between the WT and Abcd1^−/Abcd2^−/− mice. However, when the belt speed was increased up to 30 cm/sec and the slope was 20°, differences were detected between the Abcd1^−/Abcd2^−/− mice and the controls because this task requires greater coordination. […]
The bar cross test was carried out using a wooden bar of 100 cm in length and 2 cm in width (diameter). […] In an experimental session, the number of hind limb lateral slips and falls from the bar was counted on four consecutive trials. […]

Assay [2] concerns Abcd1−/Abcd2−/− mice. Briefly: Treadmill test. As to conditions: four months of treatment starting at 12 months of age, belt speed 30 cm/sec, slope 20°. The method, then: Treadmill apparatus consisted of a variable speed belt varying in terms of speed and slope. An electrified grid was located to the rear of the belt on which footshocks (0.2 mA) were administered whenever the mice fell off the belt. The treadmill apparatus (Panlab, Barcelona, Spain) consisted of a belt (50 cm long and 20 cm wide) varying in terms of speed (5 to 150 cm/s) and slope (0-25°) enclosed in a plexiglass chamber. The latency to falling off the belt (time of shocks in seconds) and the number of received shocks were measured. The mice were placed on the top of the already moving belt facing away from the electrified grid and in the direction opposite to the movement of the belt. Thus, to avoid the footshocks, the mice had to locomote forward.
The mice were evaluated in five trials in a single-day session. In the first trial, the belt speed was set at 20 cm/s and the inclination at 50. […] When the mice were subjected to consecutive trials at increasing speeds up to 20 cm/sec and a 20° slope, no differences were detected from one session to another between the WT and Abcd1^−/Abcd2^−/− mice. However, when the belt speed was increased up to 30 cm/sec and the slope was 20°, differences were detected between the Abcd1^−/Abcd2^−/− mice and the controls because this task requires greater coordination. […]

The subject of assay [3] is Abcd1−/Abcd2−/− mice. Briefly: Horizontal bar cross test. As to conditions: four months of treatment starting at 12 months of age. The method, then: The bar cross test was carried out using a wooden bar of 100 cm in length and 2 cm in width (diameter). This bar is just wide enough for mice to stand on with their hind feet hanging over the edge such that any slight lateral misstep will result in a slip. […] The mice were put on one end of the bar and expected to cross to the other end. To eliminate the novelty of the task as a source of slips, all animals were given four trials on the bar the day before and at the beginning of the testing session. In an experimental session, the number of hind limb lateral slips and falls from the bar was counted on four consecutive trials. If an animal fell, it was placed back on the bar at the point at which it fell and was allowed to complete the task. The bar was cleaned with ethanol after each animal.

`CCCCCCCCc1ccc(CCC(N)(CO)CO)cc1` [Fingolimod]: the “progression of the disease in X-ALD mice” value in assay [1] is “arrested the progression of the disease”. The “ratio between the time of shocks and the number of shocks (locomotor deficit index)” value in assay [2] is given as “indistinguishable from the WT ratio”. Further, in assay [3], the number of slips entry was “normalized” and the “time necessary to cross the bar” value was “normalized”.
Consider `CCc1cc(/C(C)=N/OCc2ccc(C3CCCCC3)c(C(F)(F)F)c2)ccc1CN1CC(C(=O)O)C1` [Siponimod], for which the “progression of the disease in X-ALD mice” value in assay [1] is on record as “arrested the progression of the disease”. Also, the “ratio between the time of shocks and the number of shocks (locomotor deficit index)” value in assay [2] was “indistinguishable from the WT ratio”. Moreover, in assay [3], the number of slips result is given as “normalized” and the “time necessary to cross the bar” value is listed as “normalized”.

Values taken from patent US20190010535A1, “METHODS AND COMPOSITIONS FOR THE DIAGNOSIS AND FOR THE TREATMENT OF ADRENOLEUKODYSTROPHY” (FUNDACIÓ INSTITUT D'INVESTIGACIÓ BIOMÈDICA DE BELLVITGE …, priority 2015, published 2019).
